Measured values: article PMC11547576, “Identification of a New Promising BAG3 Modulator Featuring the Imidazopyridine Scaffold” (Molecules, 2024)

How the values were obtained:
HeLa cells [1] = assay: MTT cell viability assay on HeLa cells; assay type: cell-based; settings: Homo sapiens, 72 h
Description: Elevated expression levels of BAG3 are strongly associated with signaling pathways in various types of malignant cells; consequently, reducing the activity of this co-chaperone inhibits cell proliferation, triggers apoptosis, and induces cell cycle arrest. To assess the activity of compounds 10, 12, and 14, cytotoxicity assays were performed on HeLa cells, which were chosen for their tendency to overexpress BAG3 proteins. MTT assays were conducted by exposing HeLa cells to different concentrations of the compounds (25, 50, and 100 µM) for 72 h. Additionally, 10% DMSO was used as a positive control, while 0.1% DMSO served as a negative control. […] The next step involved the assessment of the cytotoxicity of the most promising candidate, 10, on healthy cells to determine its safety profile. To achieve this, MTT assays were conducted on HaCat cells over 72 h.
Human cervical carcinoma cell lines (HeLa, kindly donated by Prof. Ornella Moltedo, Department of Pharmacy, University of Salerno) and immortalized human keratinocytes (HaCaT) were cultured in a DMEM/high glucose medium. This medium was supplemented with 10% FBS (v/v), 2 mM/L glutamine, 100 U/mL penicillin, and […] streptomycin. The cells were maintained at 37 °C in a humidified atmosphere with 5% CO2. To ensure logarithmic growth, the cells were sub-cultured every 2 days.
Cell viability was assessed by measuring mitochondrial metabolic activity using a colorimetric assay, which involves the reduction of 3-[4,5-dimethylthiazol-2,5-diphenyl-2H-tetrazolium bromide (MTT) to purple formazan. Stock solutions of compounds 10, 12, and 14 (50 mM in DMSO) were stored at −20 °C in the dark and diluted just before being added to the sterile culture medium. Briefly, HeLa cells (3.5 × 10^3 cells/well) were seeded in triplicate in 96-well plates, and after 24 h, to allow for attachment, the cells were treated with various concentrations of the tested compounds (25, 50 and 100 μM), 0.1% (v/v) DMSO as a negative control, and 10% (v/v) DMSO as a positive control for 72 h. Following treatment, 20 μL of MTT (5 mg/mL in PBS) was added to each well, and the cells were incubated for an additional 3 h at 37 °C. The formazan crystals formed were then dissolved in 100 μL of a buffer containing 50% (v/v) N, N-dimethylformamide and 20% SDS (pH 4.5). Absorbance was measured at 570 nm using a Multiskan™ GO Microplate Spectrophotometer (Thermo Fisher Scientific, Waltham, MA, USA,). […] The IC50 values, representing the concentration causing 50% inhibition of cell survival, were calculated and compared to control cells treated with DMSO using GraphPad Prism 8.0 software through nonlinear regression of dose–response inhibition. Only for compound 10 was the IC50 also assessed on HaCaT cells (5.0 × 10^3 cells/well) after 72 h of treatment.

HaCat cells = assay: MTT cell viability assay on HaCat healthy cells; assay type: cell-based; settings: Homo sapiens, 72 h, seven concentrations (1 to 100 μM)
Description: Elevated expression levels of BAG3 are strongly associated with signaling pathways in various types of malignant cells; consequently, reducing the activity of this co-chaperone inhibits cell proliferation, triggers apoptosis, and induces cell cycle arrest. To assess the activity of compounds 10, 12, and 14, cytotoxicity assays were performed on HeLa cells, which were chosen for their tendency to overexpress BAG3 proteins. MTT assays were conducted by exposing HeLa cells to different concentrations of the compounds (25, 50, and 100 µM) for 72 h. Additionally, 10% DMSO was used as a positive control, while 0.1% DMSO served as a negative control. […] The next step involved the assessment of the cytotoxicity of the most promising candidate, 10, on healthy cells to determine its safety profile. To achieve this, MTT assays were conducted on HaCat cells over 72 h. […]
Cell viability was assessed by measuring mitochondrial metabolic activity using a colorimetric assay, which involves the reduction of 3-[4,5-dimethylthiazol-2,5-diphenyl-2H-tetrazolium bromide (MTT) to purple formazan. […] Absorbance was measured at 570 nm using a Multiskan™ GO Microplate Spectrophotometer (Thermo Fisher Scientific, Waltham, MA, USA,). […]

HeLa cells [2] = assay: Cell cycle and hypodiploid nuclei analysis by PI staining flow cytometry; assay type: cell-based, human; settings: 72 h, all tested concentrations (50, 30, 20 µM)
Description: Given BAG3’s well-documented anti-apoptotic role, annexin V-FITC/PI staining was performed to evaluate the effects of compound 10 on cell apoptosis. […] Specifically, at 50 µM, 81.0 ± 3.89% of the cells were apoptotic (p < 0.001 vs. Ctrl); at 30 µM, 70.5 ± 4.56% were apoptotic (p < 0.01 vs. Ctrl); and at 20 µM, 51.5 ± 2.23% were apoptotic (p < 0.05 vs. Ctrl) (Figure 3A,B).
Hypodiploid nuclei were analyzed using PI staining by flow cytometry. HeLa cells (1 × 10^5 cells/well) were grown in 12-well plates and allowed to adhere for 24 h. Subsequently, the medium was replaced with fresh medium, and the cells were treated for 72 h with compound 10 at concentrations of 20, 30, and 50 µM, 0.1% (v/v) DMSO (negative control), and 10% (v/v) DMSO (positive control). Following treatment, the culture medium was replaced, and the cells were washed twice with PBS. The cells were then suspended in […] of a solution containing 50 mg/L PI, 0.1% (w/v) sodium citrate, and 0.1% Triton X-100. […] After incubation at 4 °C for 30 min in the dark, cell nuclei were analyzed using a Becton Dickinson FACS flow cytometer (Franklin Lakes, NJ, USA) with the Cell Quest program, and the DNA content of the nuclei was recorded. Cellular debris was excluded from the analysis by increasing the forward scatter threshold, and the percentages of cells in the hypodiploid region (sub-G0/G1), G1, S, and G2 regions were calculated. […]

caspase 3 = assay: Caspase 3 determination by flow cytometry; assay type: cell-based, human; settings: HeLa cells, 72 h, 50, 30 and 20 µM, vs control
Description: (§1) Furthermore, we investigated the expressions of caspases, key mediators of programmed cell death, in HeLa cells treated with compound 10 at the same concentrations used in the previous assays. […] To further confirm the pro-apoptotic mechanism induced by compound 10, Western blotting was performed to measure the expression and cleavage of caspase 3 [38, 39].
(§2) HeLa cells were seeded into 6-well plates (2.5 × 10^5 cells/well) and allowed to adhere for 24 h. The cells were then treated for 72 h with compound 10 at concentrations of 20, 30, and 50 µM, as well as with 0.1% DMSO negative (control), to assess caspase 3 and caspase 9 levels. After treatment, cells were collected, washed with PBS, and incubated at 4 °C first with a fixing buffer (containing 1% formaldehyde and 1% FBS in PBS) for 20 min, followed by permeabilization with fix perm solution (fixing buffer containing 0.1% Triton X-100) for 30 min. Next, the cells were incubated with anti-caspase 3 (1:500; SC-7272, Santa Cruz, CA, USA) and anti-caspase 9 (1:50; BS-0049R, Bioss Antibodies, Woburn, MA, USA) antibodies for 30 min at 4 °C. […] Cell fluorescence was then evaluated using a fluorescence-activated cell sorter (FACSscan, Becton Dickinson, Milan, Italy) and analyzed with Cell Quest software (4.0, Becton Dickinson, North Ryde, Australia). […]

caspase 9 = assay: Caspase 9 determination by flow cytometry; assay type: cell-based, human; settings: HeLa cells, 72 h, 50, 30 and 20 µM, vs control
Description: as §1, §2

CC(C)Nc1c(-c2ccccc2Br)nc2ccc(Cl)cn12 [Compound 10, 2-(2-bromophenyl)-6-chloro-N-isopropylimidazo[1,2-a]pyridin-3-amine] showed a mortality at 25 µM (HeLa cells [1]; 25 µM) of 50%, a mortality at 100 µM (HeLa cells [1]; 100 µM) of over 90% and an IC50 (HeLa cells [1]; seven concentrations (1 to 100 µM)) of 25.1 ± 2.67 µM. The IC50 (HaCat cells) was 81.3 ± 4.83 µM, the cell cycle arrest (HeLa cells [2]) was “consistent and significant cell cycle arrest” and the hypodiploid nuclei (HeLa cells [2]) was “increase in hypodiploid nuclei”. The “activation of caspase 3” value (caspase 3) was “pronounced, dose-dependent activation” and the “activation of caspase 9” value (caspase 9) was “pronounced, dose-dependent activation”.
